In ChEMBL document CHEMBL3259778, “Design and synthesis of novel indole-chalcone fibrates as lipid lowering agents” (2014):
Calls of active or inactive are those of the source. No cut-off for these calls is given here.

What was measured:
Rattus norvegicus [1] = test: Antidyslipidemic activity in triton-induced hyperlipidemic Charles Foster rat assessed as plasma post heparin lipolytic activity at 100 mg/kg, po relative to control; type: functional
Rattus norvegicus [2] = test: Antidyslipidemic activity in triton-induced hyperlipidemic Charles Foster rat assessed as reduction in triglyceride in plasma at 100 mg/kg, po relative to control; type: functional; set-up: scale not given: the % may be the effect or the level left
Rattus norvegicus [3] = test: Antidyslipidemic activity in triton-induced hyperlipidemic Charles Foster rat assessed as reduction in total cholesterol in plasma at 100 mg/kg, po relative to control; type: functional; set-up: scale not given: the % may be the effect or the level left
Rattus norvegicus [4] = test: Antidyslipidemic activity in triton-induced hyperlipidemic Charles Foster rat assessed as reduction in phospholipid in plasma at 100 mg/kg, po relative to control; type: functional; set-up: scale not given: the % may be the effect or the level left
Rattus norvegicus [5] = test: Antidyslipidemic activity in triton-induced hyperlipidemic po dosed Charles Foster rat assessed as reduction in VLDL in plasma relative to control; type: functional, organism-based
[6] = Antioxidant activity assessed as hydroxyl ion scavenging activity measured as MDA formation at 200 ug/ml after 90 mins by spectrophotometry relative to control; type: functional
Rattus norvegicus [7] = test: Antidyslipidemic activity in triton-induced hyperlipidemic po dosed Charles Foster rat assessed as increase in HDL in plasma relative to control; type: functional, organism-based
[8] = Antioxidant activity assessed as superoxide ion scavenging activity measured as formazone formation at 200 ug/ml after 90 mins by spectrophotometry relative to control; type: functional
Rattus norvegicus [9] = test: Antidyslipidemic activity in triton-induced hyperlipidemic Charles Foster rat assessed as reduction in total cholesterol in plasma at 50 to 150 mg/kg, po relative to control; type: functional; set-up: scale not given: the % may be the effect or the level left; conditions: dose mg/kg 50-150
[10] = Antioxidant activity assessed as suppression of microsomal lipid peroxidation measured as MDA formation at 200 ug/ml after 90 mins by spectrophotometry relative to control; type: functional
Rattus norvegicus [11] = test: Antidyslipidemic activity in triton-induced hyperlipidemic po dosed Charles Foster rat assessed as reduction in LDL in plasma relative to control; type: functional, organism-based
Rattus norvegicus [12] = test: Antidyslipidemic activity in triton-induced hyperlipidemic Charles Foster rat assessed as increase in total lipolytic activity of lipoprotein lipase at 100 mg/kg, po relative to control; type: functional, organism-based; set-up: dose 100 mg/kg
Rattus norvegicus [13] = test: Antidyslipidemic activity in triton-induced hyperlipidemic Charles Foster rat assessed as reduction in triglyceride in plasma at 50 to 150 mg/kg, po relative to control; type: functional; set-up: scale not given: the % may be the effect or the level left; conditions: dose mg/kg 50-150
Rattus norvegicus [14] = test: Antidyslipidemic activity in triton-induced hyperlipidemic Charles Foster rat assessed as reduction in phospholipid in plasma at 50 to 150 mg/kg, po relative to control; type: functional; set-up: scale not given: the % may be the effect or the level left; conditions: dose mg/kg 50-150

Compound | Activity (Rattus norvegicus [1]) | Activity (Rattus norvegicus [2]) | Activity (Rattus norvegicus [3]) | Activity (Rattus norvegicus [4]) | Activity (Rattus norvegicus [5]) | Activity [6] | Activity (Rattus norvegicus [7]) | Activity [8] | Activity (Rattus norvegicus [9]) | Activity [10] | Activity (Rattus norvegicus [11]) | Activity (Rattus norvegicus [12]) | Activity (Rattus norvegicus [13]) | Activity (Rattus norvegicus [14])
COC(=O)C(C)Oc1ccc(C(=O)/C=C/c2c[nH]c3ccc(Cl)cc23)cc1 (stereo unspecified) | 3% | 17% | 12% | 14% |  |  |  |  |  |  |  |  |  | 
CCC(Oc1ccc(C(=O)/C=C/c2c[nH]c3ccccc23)cc1)C(=O)OC (stereo unspecified) | 3% | 9% | 8% | 8% |  |  |  |  |  |  |  |  |  | 
CCOC(=O)CCCOc1ccc(C(=O)/C=C/c2c(C)[nH]c3ccccc23)cc1 | 7% | 14% | 13% | 16% |  |  |  |  |  |  |  |  |  | 
CCOC(=O)C(C)(C)Oc1ccc(C(=O)/C=C/c2c(C)[nH]c3ccccc23)cc1 | 20% | 30% | 32% | 33% | Active | 41% | Active | 36% | 24% | 40% | Active | Active | 25% | 26%
CC(C)OC(=O)C(C)(C)Oc1ccc(C(=O)c2ccc(Cl)cc2)cc1 [FENOFIBRATE] | 19% | 33% | 32% | 30% |  |  |  |  |  |  |  | Active |  | 
CCC(Oc1ccc(C(=O)/C=C/c2c(C)[nH]c3ccccc23)cc1)C(=O)OC (stereo unspecified) | 16% | 27% | 26% | 24% | Active | 29% | Active | 27% | 14% | 28% | Active | Active | 15% | 17%
CCOC(=O)CCCOc1ccc(C(=O)/C=C/c2c[nH]c3ccccc23)cc1 | 19% | 30% | 31% | 32% | Active | 37% | Active | 31% | 22% | 35% | Active | Active | 20% | 20%
CCOC(=O)C(C)Oc1ccc(C(=O)/C=C/c2c[nH]c3ccc(OC)cc23)cc1 (stereo unspecified) | 6% | 10% | 11% | 13% |  |  |  |  |  |  |  |  |  | 
Oc1ncnc2[nH]ncc12 |  |  |  |  |  |  |  | 49% |  |  |  |  |  | 
COC(=O)CCCOc1ccc(C(=O)/C=C/c2c[nH]c3ccc(OC)cc23)cc1 | 7% | 14% | 13% | 11% |  |  |  |  |  |  |  |  |  | 
CCOC(=O)C(C)Oc1ccc(C(=O)/C=C/c2c[nH]c3ccccc23)cc1 (stereo unspecified) | 8% | 12% | 15% | 13% |  |  |  |  |  |  |  |  |  | 
COC(=O)CCCOc1ccc(C(=O)/C=C/c2c[nH]c3ccccc23)cc1 | 14% | 22% | 20% | 22% |  | 32% |  | 26% |  | 30% |  |  |  | 
COC(=O)CCCOc1ccc(C(=O)/C=C/c2c(C)[nH]c3ccccc23)cc1 | 9% | 16% | 15% | 18% |  |  |  |  |  |  |  |  |  | 
COC(=O)C(C)Oc1ccc(C(=O)/C=C/c2c[nH]c3ccccc23)cc1 (stereo unspecified) | 6% | 12% | 13% | 14% |  |  |  |  |  |  |  |  |  | 
CCOC(=O)C(C)(C)Oc1ccc(C(=O)/C=C/c2c[nH]c3ccccc23)cc1 | 14% | 22% | 20% | 22% |  | 38% |  | 33% |  | 36% |  |  |  | 
CCOC(=O)C(CC)Oc1ccc(C(=O)/C=C/c2c[nH]c3ccc(Cl)cc23)cc1 (stereo unspecified) | 13% | 16% | 18% | 16% |  |  |  |  |  |  |  |  |  | 
COC(=O)C(C)(C)Oc1ccc(C(=O)/C=C/c2c(C)[nH]c3ccccc23)cc1 | 6% | 10% | 10% | 12% |  |  |  |  |  |  |  |  |  | 
OC[C@@H](O)[C@@H](O)[C@H](O)[C@H](O)CO |  |  |  |  |  | 53% |  |  |  |  |  |  |  | 
CCOC(=O)C(CC)Oc1ccc(C(=O)/C=C/c2c(C)[nH]c3ccccc23)cc1 (stereo unspecified) | 14% | 22% | 20% | 22% |  |  |  |  |  |  |  |  |  | 
CCOC(=O)C(C)Oc1ccc(C(=O)/C=C/c2c[nH]c3ccc(Cl)cc23)cc1 (stereo unspecified) | 7% | 13% | 11% | 15% |  |  |  |  |  |  |  |  |  | 
COC(=O)CCCOc1ccc(C(=O)/C=C/c2c[nH]c3ccc(Cl)cc23)cc1 | 4% | 10% | 10% | 11% |  |  |  |  |  |  |  |  |  | 
Cc1c(C)c2c(c(C)c1O)CC[C@@](C)(CCC[C@H](C)CCC[C@H](C)CCCC(C)C)O2 |  |  |  |  |  |  |  |  |  | 46% |  |  |  | 
